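Dose response: 5 concentrations. Exposure: 48 h. Format: 96-well plates. Endpoint: linear interpolation; highest concentration if not reached. GI50 is the concentration that inhibits growth by half. TGI: concentration producing complete growth inhibition.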
What was measured:
Test in all cases: DTP human tumour cell line panel, 48 h
IGROV1 ovarian = tested on: IGROV1 ovarian
UACC-62 melanoma = tested on: UACC-62 melanoma
SF-539 CNS = tested on: SF-539 CNS
NCI-H460 lung = tested on: NCI-H460 lung
786-0 renal = tested on: 786-0 renal
RXF 393 renal = tested on: RXF 393 renal
HS 578T breast = tested on: HS 578T breast
BT-549 breast = tested on: BT-549 breast
SW-620 colon = tested on: SW-620 colon
PC-3 prostate = tested on: PC-3 prostate
NCI-H226 lung = tested on: NCI-H226 lung
SF-295 CNS = tested on: SF-295 CNS
SNB-75 CNS = tested on: SNB-75 CNS
OVCAR-5 ovarian = tested on: OVCAR-5 ovarian
CAKI-1 renal = tested on: CAKI-1 renal
HCT-116 colon = tested on: HCT-116 colon
TK-10 renal = tested on: TK-10 renal
HOP-62 NSCLC = tested on: HOP-62 NSCLC
SNB-19 CNS = tested on: SNB-19 CNS
SN12C renal = tested on: SN12C renal
KM12 colon = tested on: KM12 colon
HT29 colon = tested on: HT29 colon
DU-145 prostate = tested on: DU-145 prostate
HOP-92 NSCLC = tested on: HOP-92 NSCLC
SK-MEL-5 melanoma = tested on: SK-MEL-5 melanoma
A498 renal = tested on: A498 renal
SF-268 CNS = tested on: SF-268 CNS
SK-OV-3 ovarian = tested on: SK-OV-3 ovarian
HCC-2998 colon = tested on: HCC-2998 colon
EKVX NSCLC = tested on: EKVX NSCLC
U251 CNS = tested on: U251 CNS
MCF7 breast = tested on: MCF7 breast
SK-MEL-2 melanoma = tested on: SK-MEL-2 melanoma
SK-MEL-28 melanoma = tested on: SK-MEL-28 melanoma
UACC-257 melanoma = tested on: UACC-257 melanoma
OVCAR-3 ovarian = tested on: OVCAR-3 ovarian
A549 NSCLC = tested on: A549 NSCLC
OVCAR-4 ovarian = tested on: OVCAR-4 ovarian
OVCAR-8 ovarian = tested on: OVCAR-8 ovarian
COLO 205 colon = tested on: COLO 205 colon
CCRF-CEM leukemia = tested on: CCRF-CEM leukemia
LOX IMVI melanoma = tested on: LOX IMVI melanoma
T-47D breast = tested on: T-47D breast
NCI/ADR-RES ovarian = tested on: NCI/ADR-RES ovarian
RPMI-8226 leukemia = tested on: RPMI-8226 leukemia
MALME-3M melanoma = tested on: MALME-3M melanoma
M14 melanoma = tested on: M14 melanoma
MDA-MB-435 = tested on: MDA-MB-435
UO-31 renal = tested on: UO-31 renal
MDA-MB-231 breast = tested on: MDA-MB-231 breast
HCT-15 colon = tested on: HCT-15 colon
ACHN renal = tested on: ACHN renal
NCI-H522 lung = tested on: NCI-H522 lung

COc1cc2nc(-c3ccc(C(F)(F)F)cc3)cc(OCCCNCC3CCCO3)c2cc1OC (stereo unspecified)
GI50 (IGROV1 ovarian): 4.41 µM | TGI (IGROV1 ovarian): 18.8 µM | GI50 (UACC-62 melanoma): 3.54 µM | TGI (UACC-62 melanoma): 14.5 µM | GI50 (SF-539 CNS): 11.2 µM | TGI (SF-539 CNS): 24 µM | GI50 (NCI-H460 lung): 3.89 µM | TGI (NCI-H460 lung): 15.8 µM | GI50 (786-0 renal): 6.44 µM | TGI (786-0 renal): 21.1 µM | GI50 (RXF 393 renal): 1.38 µM | TGI (RXF 393 renal): 5.23 µM | GI50 (HS 578T breast): 10.4 µM | TGI (HS 578T breast): 25.8 µM | GI50 (BT-549 breast): 6.92 µM | TGI (BT-549 breast): 21.1 µM | GI50 (SW-620 colon): 8.16 µM | TGI (SW-620 colon): 22 µM | GI50 (PC-3 prostate): 3.8 µM | TGI (PC-3 prostate): 17.2 µM | GI50 (NCI-H226 lung): 2.51 µM | TGI (NCI-H226 lung): 8.6 µM | GI50 (SF-295 CNS): 8.68 µM | TGI (SF-295 CNS): 22 µM | GI50 (SNB-75 CNS): 8.45 µM | TGI (SNB-75 CNS): 21.9 µM | GI50 (OVCAR-5 ovarian): 4.09 µM | TGI (OVCAR-5 ovarian): 17.5 µM | GI50 (CAKI-1 renal): 1.74 µM | TGI (CAKI-1 renal): 5.32 µM | GI50 (HCT-116 colon): 3.45 µM | TGI (HCT-116 colon): 14.8 µM | GI50 (TK-10 renal): 12.2 µM | TGI (TK-10 renal): 25.3 µM | GI50 (HOP-62 NSCLC): 6.01 µM | TGI (HOP-62 NSCLC): 21.4 µM | GI50 (SNB-19 CNS): 13.3 µM | TGI (SNB-19 CNS): 28.4 µM | GI50 (SN12C renal): 4.63 µM | TGI (SN12C renal): 18.4 µM | GI50 (KM12 colon): 5.49 µM | TGI (KM12 colon): 20.5 µM | GI50 (HT29 colon): 2.98 µM | TGI (HT29 colon): 11.2 µM | GI50 (DU-145 prostate): 9.03 µM | TGI (DU-145 prostate): 21.7 µM | GI50 (HOP-92 NSCLC): 1.57 µM | TGI (HOP-92 NSCLC): 7.85 µM | GI50 (SK-MEL-5 melanoma): 11.7 µM | TGI (SK-MEL-5 melanoma): 24.7 µM | GI50 (A498 renal): 20.6 µM | TGI (A498 renal): 37 µM | GI50 (SF-268 CNS): 10.4 µM | TGI (SF-268 CNS): 25 µM | GI50 (SK-OV-3 ovarian): 12.4 µM | TGI (SK-OV-3 ovarian): 25.8 µM | GI50 (HCC-2998 colon): 10.3 µM | TGI (HCC-2998 colon): 23.6 µM | GI50 (EKVX NSCLC): 4.22 µM | TGI (EKVX NSCLC): 18.6 µM | GI50 (U251 CNS): 7.37 µM | TGI (U251 CNS): 26.5 µM | GI50 (MCF7 breast): 3.23 µM | TGI (MCF7 breast): 15.9 µM | GI50 (SK-MEL-2 melanoma): 13.7 µM | TGI (SK-MEL-2 melanoma): 26.9 µM | GI50 (SK-MEL-28 melanoma): 5.77 µM | TGI (SK-MEL-28 melanoma): 19.3 µM | GI50 (UACC-257 melanoma): 2.01 µM | TGI (UACC-257 melanoma): 4.79 µM | GI50 (OVCAR-3 ovarian): 12.3 µM | TGI (OVCAR-3 ovarian): 27.5 µM | GI50 (A549 NSCLC): 4.43 µM | TGI (A549 NSCLC): 21.2 µM | GI50 (OVCAR-4 ovarian): 9.01 µM | TGI (OVCAR-4 ovarian): 21.5 µM | GI50 (OVCAR-8 ovarian): 3.72 µM | TGI (OVCAR-8 ovarian): 16.6 µM | GI50 (COLO 205 colon): 3.09 µM | TGI (COLO 205 colon): 17.7 µM | GI50 (CCRF-CEM leukemia): 6.61 µM | TGI (CCRF-CEM leukemia): 24.4 µM | GI50 (LOX IMVI melanoma): 1.61 µM | TGI (LOX IMVI melanoma): 4.33 µM | GI50 (T-47D breast): 4.06 µM | TGI (T-47D breast): 19 µM | GI50 (NCI/ADR-RES ovarian): 6.92 µM | TGI (NCI/ADR-RES ovarian): 24.5 µM | GI50 (RPMI-8226 leukemia): 2.39 µM | TGI (RPMI-8226 leukemia): 12.2 µM | GI50 (MALME-3M melanoma): 3.17 µM | TGI (MALME-3M melanoma): 13.8 µM | GI50 (M14 melanoma): 3.09 µM | TGI (M14 melanoma): 12.4 µM | GI50 (MDA-MB-435): 3.13 µM | TGI (MDA-MB-435): 11.7 µM | GI50 (UO-31 renal): 2.53 µM | TGI (UO-31 renal): 15.6 µM | GI50 (MDA-MB-231 breast): 3.79 µM | TGI (MDA-MB-231 breast): 17 µM | GI50 (HCT-15 colon): 3.1 µM | TGI (HCT-15 colon): 12.3 µM | GI50 (ACHN renal): 4.89 µM | TGI (ACHN renal): 18.2 µM | GI50 (NCI-H522 lung): 3.05 µM | TGI (NCI-H522 lung): 13.8 µM
